According to patent publication US9388149B2, “Disubstituted 3,4-diamino-3-cyclobutene-1,2-dione compounds for use in the treatment of chemokine-mediated diseases” (GALDERMA RESEARCH & DEVELOPMENT, priority 2011, dated 2016):

Key:
[1] = Metabolic stabilities in hepatic microsomes; settings: hepatic microsomes, pH 7.4, Half-life time (min), hepatic microsomes 0.5 mg/ml protein, compound 1 μM, sampling up to 60 minutes
Method: Hepatic microsomes (Becton Dickinson) were incubated at a protein concentration of 0.5 mg/ml in the reaction medium.
The reaction medium of the microsomes was composed of phosphate buffer, pH: 7.4 at 100 mM, of MgCl2 at 100 mM (50/50), of an ATP-generating system composed of a mixture of nicotinamide adenine diphosphate (NADP), of glucose-6-phosphate (G6P) at 1 mg/ml and of glucose-6-phosphate dehydrogenase (G6PDH) at 4 U/ml. The compounds were tested at 1 μM (0.1% DMSO).
The samples of incubation medium after addition of the microsomes were taken at times 5, 10, 15, 30 and 60 minutes. At each time, the metabolic reaction was stopped by adding methanol (1 volume incubation medium/3 volumes of methanol). The disappearance of the parent product was measured by LC/MS/MS analysis. The time for which 50% of parent product disappeared (T1/2) was calculated from the kinetics of disappearance of the parent product as a function of time.

[2] = molecular target: FPR1 (Homo sapiens (Human), UniProt P21462); assay: Calcium flux on Chem-1 cells expressing the receptor (FLIPR TETRA), antagonist mode; assay type: cell-based; settings: antagonist activity, reference agonist at AC80
Sequence of FPR1 (P21462 whole entry): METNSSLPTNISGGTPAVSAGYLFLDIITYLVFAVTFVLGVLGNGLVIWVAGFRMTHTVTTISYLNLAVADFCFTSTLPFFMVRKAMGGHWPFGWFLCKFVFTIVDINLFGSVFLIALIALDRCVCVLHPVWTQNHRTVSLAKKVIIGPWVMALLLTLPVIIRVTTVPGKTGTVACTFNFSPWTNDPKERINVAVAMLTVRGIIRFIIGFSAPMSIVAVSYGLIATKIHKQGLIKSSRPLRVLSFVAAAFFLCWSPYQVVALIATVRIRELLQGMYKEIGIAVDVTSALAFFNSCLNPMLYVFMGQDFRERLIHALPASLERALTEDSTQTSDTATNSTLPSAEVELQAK
Method: (§3) Measurement of calcium flux on cells: The experiments were carried out on the FLIPR TETRA® platform from Molecular Devices.
(§4) Each cell line expressing a chemokine receptor was established on the basis of the Chem-1 cell stably expressing the recombinant form of the chemokine receptor and also an associated G protein, with the aim of coupling the receptor to the calcium signalling pathway.

[3] = molecular target: CXCR2 receptor (Homo sapiens (Human), UniProt P25025); assay: β-arrestin recruitment test, PathHunter HEK293-CXCR2 cells stimulated with CXCL8; assay type: cell-based; settings: inhibition of CXCL8 (10 nM) induced β-arrestin 2 recruitment; *9999 signifies not active
Sequence of CXCR2 receptor (P25025 whole entry): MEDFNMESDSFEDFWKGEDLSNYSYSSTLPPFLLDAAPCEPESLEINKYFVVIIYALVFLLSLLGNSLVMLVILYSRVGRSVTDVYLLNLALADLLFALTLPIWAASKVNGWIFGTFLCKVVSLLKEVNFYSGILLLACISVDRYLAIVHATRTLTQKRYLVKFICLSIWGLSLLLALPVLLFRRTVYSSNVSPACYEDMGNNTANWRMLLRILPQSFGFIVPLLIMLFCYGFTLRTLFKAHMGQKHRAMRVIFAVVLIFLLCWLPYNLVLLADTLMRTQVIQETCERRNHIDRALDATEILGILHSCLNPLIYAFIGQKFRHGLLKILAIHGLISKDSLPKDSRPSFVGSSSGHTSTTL
Method: (§1) The in vitro affinity of the compounds of the present invention for the CXCR1 and CXCR2 receptors was determined on a functional test of the β-arrestin recruitment after receptor activation type.
(§2) β-Arrestin recruitment test: “PathHunter HEK293-CXCR2” or “U2OS hCXCR1 β-arrestin” cells (DiscoveRx Corporation) were seeded overnight at 10 000 cells/well (384-well format) in 20 μl of Opti MEM I medium. A preincubation with the antagonist or the vehicle for 30 min at 37° C. and 5% CO2 was followed by 60 minutes of stimulation with CXCL8 at 37° C. and 5% CO2. The cells were then placed at ambient temperature for 30 minutes. The PathHunter detection reagent (DiscoveRx Corporation) was added. […] The data were analyzed by means of a non-linear curve procedure using the XLFit4 exploitation software (IDBS) and the IC50 values were determined.

[4] = molecular target: CCR8 (Homo sapiens (Human), UniProt P51685); assay: Calcium flux on Chem-1 cells expressing the chemokine receptor (FLIPR TETRA), antagonist mode; assay type: cell-based; settings: antagonist activity, reference agonist at AC80
Sequence of CCR8 (P51685 whole entry): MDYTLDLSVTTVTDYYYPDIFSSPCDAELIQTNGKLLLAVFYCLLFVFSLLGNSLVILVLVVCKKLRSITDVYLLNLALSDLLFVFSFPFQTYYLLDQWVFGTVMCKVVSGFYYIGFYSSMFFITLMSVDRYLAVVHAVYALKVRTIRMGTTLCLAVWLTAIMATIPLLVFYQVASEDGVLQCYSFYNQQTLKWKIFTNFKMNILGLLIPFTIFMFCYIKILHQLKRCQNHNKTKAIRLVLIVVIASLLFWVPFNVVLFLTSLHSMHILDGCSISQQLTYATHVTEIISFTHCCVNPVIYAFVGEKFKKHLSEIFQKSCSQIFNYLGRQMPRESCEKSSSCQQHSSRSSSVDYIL
Method: as §3, §4
(§5) 21 receptors belonging to the chemokine receptor family (CCRs and CXCRs) were analyzed.

[5] = Metabolic stabilities in hepatocytes; assay type: in vitro ADME; settings: compound 1 μM, sampling up to 24 hours; for half-life at 1 μM: human, hepatocytes, read-out: Half-life time
Method: The human hepatocytes were supplied by Biopredic in 24-well plates.
The samples of incubation medium after addition of the test compound were taken at times t=0, 1, 2, 4, 6 and 24 hours.

[6] = molecular target: CCR6 (Homo sapiens (Human), UniProt P51684); assay: Calcium flux on Chem-1 cells expressing the chemokine receptor (FLIPR TETRA), antagonist mode; assay type: cell-based; settings: antagonist activity, reference agonist at AC80
Sequence of CCR6 (P51684 whole entry): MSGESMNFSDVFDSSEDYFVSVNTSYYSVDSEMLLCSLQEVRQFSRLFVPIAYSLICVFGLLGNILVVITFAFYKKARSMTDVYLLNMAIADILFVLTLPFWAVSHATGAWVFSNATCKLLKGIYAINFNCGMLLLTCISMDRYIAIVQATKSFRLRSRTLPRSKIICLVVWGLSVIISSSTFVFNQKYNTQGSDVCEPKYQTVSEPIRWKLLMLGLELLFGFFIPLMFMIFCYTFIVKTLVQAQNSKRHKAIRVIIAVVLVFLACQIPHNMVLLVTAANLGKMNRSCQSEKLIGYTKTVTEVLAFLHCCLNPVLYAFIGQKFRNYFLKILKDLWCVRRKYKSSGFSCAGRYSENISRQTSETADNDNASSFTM
Method: as §3, §4, §5

[7] = molecular target: CXCR3 (Homo sapiens (Human), UniProt P49682); assay: as above; settings: IC50 CXCR3, antagonist activity, reference agonist at AC80
Sequence of CXCR3 (P49682 whole entry): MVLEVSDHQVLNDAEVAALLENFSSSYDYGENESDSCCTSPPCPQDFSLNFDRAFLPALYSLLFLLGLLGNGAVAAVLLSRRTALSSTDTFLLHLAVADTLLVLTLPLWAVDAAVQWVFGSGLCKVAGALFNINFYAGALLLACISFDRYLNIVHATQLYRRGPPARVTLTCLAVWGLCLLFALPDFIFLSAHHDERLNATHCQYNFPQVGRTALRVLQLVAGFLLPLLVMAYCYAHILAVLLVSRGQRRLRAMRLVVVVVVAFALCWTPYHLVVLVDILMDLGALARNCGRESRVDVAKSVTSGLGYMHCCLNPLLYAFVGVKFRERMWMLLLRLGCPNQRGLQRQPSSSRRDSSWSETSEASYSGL
Method: as §3, §4, §5

[8] = molecular target: CCR4 (Homo sapiens (Human), UniProt P51679); assay: as above
Sequence of CCR4 (P51679 whole entry): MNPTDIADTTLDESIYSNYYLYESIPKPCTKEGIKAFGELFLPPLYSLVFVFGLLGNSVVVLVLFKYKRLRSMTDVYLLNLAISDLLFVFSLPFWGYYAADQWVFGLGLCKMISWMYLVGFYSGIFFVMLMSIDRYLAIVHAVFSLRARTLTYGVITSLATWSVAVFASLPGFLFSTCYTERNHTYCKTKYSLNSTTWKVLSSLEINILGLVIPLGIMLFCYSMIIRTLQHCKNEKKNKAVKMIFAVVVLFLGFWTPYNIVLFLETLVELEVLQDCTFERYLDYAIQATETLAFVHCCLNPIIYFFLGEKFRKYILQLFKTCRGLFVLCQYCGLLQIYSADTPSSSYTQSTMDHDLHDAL
Method: as §3, §4, §5

[9] = molecular target: CCR7 (Homo sapiens (Human), UniProt P32248); assay: as above; assay type: cell-based; settings: antagonist activity, reference agonist at AC80
Sequence of CCR7 (P32248 25-378): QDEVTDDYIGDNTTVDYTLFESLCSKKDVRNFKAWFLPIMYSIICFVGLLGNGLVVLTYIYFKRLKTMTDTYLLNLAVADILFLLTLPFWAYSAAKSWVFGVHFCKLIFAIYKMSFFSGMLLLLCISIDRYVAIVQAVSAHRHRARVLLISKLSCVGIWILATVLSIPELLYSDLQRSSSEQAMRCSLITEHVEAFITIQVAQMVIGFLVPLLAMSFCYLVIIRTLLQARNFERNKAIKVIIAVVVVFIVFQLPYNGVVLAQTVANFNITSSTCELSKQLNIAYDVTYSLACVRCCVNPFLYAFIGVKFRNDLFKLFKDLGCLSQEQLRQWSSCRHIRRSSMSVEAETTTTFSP
Method: as §3, §4, §5

[10] = molecular target: CXCR1 receptor (Homo sapiens (Human), UniProt P25024); assay: β-arrestin recruitment test, U2OS hCXCR1 β-arrestin cells stimulated with CXCL8; assay type: cell-based; settings: inhibition of CXCL8 (10 nM) induced β-arrestin 2 recruitment; *9999 signifies not active
Sequence of CXCR1 receptor (P25024 whole entry): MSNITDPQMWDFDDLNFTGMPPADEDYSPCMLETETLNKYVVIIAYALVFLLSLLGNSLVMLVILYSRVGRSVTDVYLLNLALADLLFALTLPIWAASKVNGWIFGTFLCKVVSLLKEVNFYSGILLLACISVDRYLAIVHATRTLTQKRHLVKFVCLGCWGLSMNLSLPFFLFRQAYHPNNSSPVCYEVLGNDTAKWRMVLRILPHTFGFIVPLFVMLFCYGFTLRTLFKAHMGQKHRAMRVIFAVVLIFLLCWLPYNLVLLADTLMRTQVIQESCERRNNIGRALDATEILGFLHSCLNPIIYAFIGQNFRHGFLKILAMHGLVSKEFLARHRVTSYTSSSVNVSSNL
Method: as §1, §2

[11] = tested on: receptors of CXCR1 and CXCR2 type; settings: pseudo-irreversible dissociation, literature value; cited from earlier work
[12] = tested on: panel of 20 chemokine receptors; assay: Receptor profiling on a panel of 20 chemokine receptors (calcium flux); settings: result in words
Method: as §3, §4

Cc1ccc(C(Nc2c(Nc3cccc(C(=O)N(C)C)c3O)c(=O)c2=O)C2CCCS2)o1 (single isomer, unassigned) [2 (diastereoisomer 2), 2-Hydroxy-N,N-dimethyl-3-(2-{[(5-methylfuran-2-yl)-(tetrahydrothiophen-2-yl)methyl]amino}-3,4-dioxo-cyclobut-1-enylamino)benzamide]
half-life at 1 μM [1]: 11 min | IC50 [2]: 6500 nM | IC50 [3]: 35 nM | IC50 [4]: 620 nM

Cc1ccc(C(Nc2c(Nc3cccc(C(=O)N(C)C)c3O)c(=O)c2=O)C2(C)CCCO2)o1 (single isomer, unassigned) [1 (diastereoisomer 2), 2-hydroxy-N,N-dimethyl-3-(2-{[(5-methylfuran-2-yl)-(2-methyltetrahydrofuran-2-yl)methyl]amino}-3,4-dioxo-cyclobut-1-enylamino)benzamide]
half-life at 1 μM [1]: 27 min | Half-life time ([5]; human hepatocytes): 539 min | IC50 [6]: 2.2 nM | IC50 [7]: 55 nM | IC50 [3]: 94 nM

Cc1ccc(C(Nc2c(Nc3cccc(C(=O)N(C)C)c3O)c(=O)c2=O)C2(C)CCCO2)o1 (single isomer, unassigned) [Example 1 (Enantiomer 2 of diastereoisomer 2), 2-Hydroxy-N,N-dimethyl-3-(2-{[(5-methylfuran-2-yl)-(2-methyltetrahydrofuran-2-yl)methyl]amino}-3,4-dioxo-cyclobut-1-enylamino)benzamide]
IC50 [8]: 410 nM | half-life at 1 μM [5]: 300 min | IC50 [6]: 2 nM | IC50 [7]: 1.3 nM | IC50 [3]: 53 nM | IC50 [9]: 8700 nM

Cc1ccc([C@H](Nc2c(Nc3cccc(C(=O)N(C)CC(F)(F)F)c3O)c(=O)c2=O)C2CCCS2)o1 (single isomer, unassigned; (-)) [Example 18]
IC50 [8]: 97 nM | half-life at 1 μM [1]: 15 min | half-life at 1 μM [5]: 82 min | IC50 [7]: 450 nM | IC50 [10]: 36 nM | IC50 [3]: 15 nM

COC(=O)CN(C)C(=O)c1cccc(Nc2c(N[C@@H](c3ccc(C)o3)C3CCCS3)c(=O)c2=O)c1O (single isomer, unassigned) [Example 19]
IC50 [8]: 8.1 nM | half-life at 1 μM [1]: 8 min | half-life at 1 μM [5]: 214 min | IC50 [6]: 11 nM | IC50 [7]: 510 nM | IC50 [10]: 42 nM | IC50 [3]: 20 nM

CC[C@@H](Nc1c(Nc2cccc(C(=O)N(C)C)c2O)c(=O)c1=O)c1ccc(C)o1 [SCH-527123]
dissociation time [11]: about 22 h | activity on the chemokine receptors of the panel (CCR4, CCR6, CCR7, CCR8, CXCR3, FPR1) [12]: inactive or not very active at all
